# Laboratory results reported in ChEMBL document CHEMBL1201862, “PubChem BioAssay data set” (2004).
# The source made the active and inactive calls.
# Legend:
# [1] = molecular target: T1, Endoribonuclease toxin MazF (Escherichia coli K-12, UniProt P0AE70); assay: substrate-only fluorescence increase artefacts – biochemical, single-stranded RNase substrate, counter-screen for MazEF activator project, dose response (AID 588502); assay type: functional
# T1 sequence (P0AE70 whole entry): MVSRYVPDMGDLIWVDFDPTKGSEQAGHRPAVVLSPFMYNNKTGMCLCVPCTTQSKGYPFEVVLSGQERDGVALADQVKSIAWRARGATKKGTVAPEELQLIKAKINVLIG
# [2] = molecular target: T2, RNA-binding protein pos-1 (Caenorhabditis elegans, UniProt G5EF15); assay: disruptors of C. elegans POS-1 RNA interaction – biochemical, fluorescence polarization, dose response (AID 1964);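 further: purified POS-1 fused to maltose binding protein made in E. coli; potency of compounds blocking POS-1 binding to fluorescent RNA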
# T2 sequence (G5EF15 whole entry): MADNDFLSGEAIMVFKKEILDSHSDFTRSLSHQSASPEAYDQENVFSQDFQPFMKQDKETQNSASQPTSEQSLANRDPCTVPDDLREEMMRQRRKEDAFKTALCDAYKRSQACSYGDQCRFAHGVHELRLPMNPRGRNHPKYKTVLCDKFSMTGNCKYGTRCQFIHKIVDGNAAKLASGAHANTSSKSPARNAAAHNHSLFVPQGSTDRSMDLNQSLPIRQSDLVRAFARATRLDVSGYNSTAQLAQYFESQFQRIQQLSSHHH
# [3] = molecular target: T1, Endoribonuclease toxin MazF; assay: activation of MazEF endoribonuclease cleavage – biochemical, fluorescence, single-stranded RNA substrate, uHTS hits, dose response (AID 588481); assay type: functional
# [4] = molecular target: T3, Zinc finger protein mex-5 (Caenorhabditis elegans, UniProt Q9XUB2); assay: potency of MEX-5 RNA-binding blockers – biochemical, C. elegans, fluorescence polarization, dose response (AID 1960)
# T3 sequence (Q9XUB2 whole entry): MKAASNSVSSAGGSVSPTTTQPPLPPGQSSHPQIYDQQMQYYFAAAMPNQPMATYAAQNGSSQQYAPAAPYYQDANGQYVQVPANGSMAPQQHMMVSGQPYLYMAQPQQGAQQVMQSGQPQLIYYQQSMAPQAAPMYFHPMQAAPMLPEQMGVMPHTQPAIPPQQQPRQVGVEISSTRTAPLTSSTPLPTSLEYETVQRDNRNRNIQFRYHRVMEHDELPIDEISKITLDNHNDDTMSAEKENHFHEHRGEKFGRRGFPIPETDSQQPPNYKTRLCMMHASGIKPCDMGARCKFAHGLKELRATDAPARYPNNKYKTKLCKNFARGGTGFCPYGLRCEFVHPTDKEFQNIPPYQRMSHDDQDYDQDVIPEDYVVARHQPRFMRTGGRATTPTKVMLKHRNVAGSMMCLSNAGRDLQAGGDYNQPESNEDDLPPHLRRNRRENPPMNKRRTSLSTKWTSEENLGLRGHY
# Escherichia coli = assay: microbe, parasite or virus in culture
# Cytochrome P450 2C19 = Cytochrome P450 2C19 (Homo sapiens, UniProt P33261); assay: Cytochrome panel assay with activity outcomes. Panel member name: p450-cyp2c19 Compounds with AC50 equal or less than 10 uM are considered active; assay type: functional; details: read-out: AC50
# Sequence of Cytochrome P450 2C19 (P33261 whole entry): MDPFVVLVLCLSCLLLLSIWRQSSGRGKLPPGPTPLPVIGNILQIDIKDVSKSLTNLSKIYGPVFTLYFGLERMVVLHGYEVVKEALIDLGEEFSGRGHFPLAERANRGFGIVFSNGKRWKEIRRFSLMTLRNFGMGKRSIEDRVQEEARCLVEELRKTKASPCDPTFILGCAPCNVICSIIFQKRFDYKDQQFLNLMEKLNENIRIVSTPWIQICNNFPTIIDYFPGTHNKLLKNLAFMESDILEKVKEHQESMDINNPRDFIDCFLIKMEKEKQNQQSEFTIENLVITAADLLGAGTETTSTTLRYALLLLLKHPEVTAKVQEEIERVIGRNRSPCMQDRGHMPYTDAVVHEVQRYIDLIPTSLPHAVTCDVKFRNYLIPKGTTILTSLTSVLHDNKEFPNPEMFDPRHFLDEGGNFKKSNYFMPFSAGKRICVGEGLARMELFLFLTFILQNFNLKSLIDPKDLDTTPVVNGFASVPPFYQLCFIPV
# Cytochrome P450 2D6 = Cytochrome P450 2D6 (Homo sapiens, UniProt P10635);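 further: CYP2D6 member of a cytochrome P450 panel assay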
# Sequence of Cytochrome P450 2D6 (P10635 whole entry): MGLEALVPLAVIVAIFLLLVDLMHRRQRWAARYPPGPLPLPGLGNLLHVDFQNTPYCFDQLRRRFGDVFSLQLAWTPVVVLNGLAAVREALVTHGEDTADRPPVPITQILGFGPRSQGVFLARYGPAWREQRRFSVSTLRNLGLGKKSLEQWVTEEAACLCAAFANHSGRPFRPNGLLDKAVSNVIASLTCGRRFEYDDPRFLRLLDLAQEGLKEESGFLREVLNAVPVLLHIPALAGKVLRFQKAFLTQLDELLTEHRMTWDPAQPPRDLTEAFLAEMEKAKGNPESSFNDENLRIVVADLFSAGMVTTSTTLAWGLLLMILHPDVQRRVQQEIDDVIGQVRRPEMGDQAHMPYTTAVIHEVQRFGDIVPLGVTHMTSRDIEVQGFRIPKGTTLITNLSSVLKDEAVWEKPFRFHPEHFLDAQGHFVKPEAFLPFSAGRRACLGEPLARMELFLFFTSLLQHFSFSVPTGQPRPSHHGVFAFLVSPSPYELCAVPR
# Cytochrome P450 1A2 = molecular target: T4, Cytochrome P450 1A2 (Homo sapiens, UniProt P05177);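 further: PubChem cytochrome P450 panel assay, CYP1A2 panel member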
# T4 sequence (P05177 whole entry): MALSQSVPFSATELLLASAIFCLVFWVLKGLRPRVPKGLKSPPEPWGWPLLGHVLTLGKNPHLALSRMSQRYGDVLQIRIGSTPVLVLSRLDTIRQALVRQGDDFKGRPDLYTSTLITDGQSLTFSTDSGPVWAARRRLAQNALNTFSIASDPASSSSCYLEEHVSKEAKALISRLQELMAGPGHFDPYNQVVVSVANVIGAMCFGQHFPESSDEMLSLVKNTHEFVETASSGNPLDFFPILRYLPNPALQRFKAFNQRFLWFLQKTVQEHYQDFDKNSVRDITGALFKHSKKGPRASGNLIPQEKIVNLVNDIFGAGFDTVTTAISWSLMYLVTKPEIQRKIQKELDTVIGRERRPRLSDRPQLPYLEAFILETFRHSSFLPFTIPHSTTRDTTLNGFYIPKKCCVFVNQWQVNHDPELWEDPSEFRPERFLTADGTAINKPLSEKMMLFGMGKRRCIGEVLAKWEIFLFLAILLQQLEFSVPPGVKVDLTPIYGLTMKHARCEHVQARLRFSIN
# Cytochrome P450 3A4 = Cytochrome P450 3A4 (Homo sapiens, UniProt P08684);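 further: CYP3A4 tested as one member of a cytochrome P450 panel screen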
# Sequence of Cytochrome P450 3A4 (P08684 whole entry): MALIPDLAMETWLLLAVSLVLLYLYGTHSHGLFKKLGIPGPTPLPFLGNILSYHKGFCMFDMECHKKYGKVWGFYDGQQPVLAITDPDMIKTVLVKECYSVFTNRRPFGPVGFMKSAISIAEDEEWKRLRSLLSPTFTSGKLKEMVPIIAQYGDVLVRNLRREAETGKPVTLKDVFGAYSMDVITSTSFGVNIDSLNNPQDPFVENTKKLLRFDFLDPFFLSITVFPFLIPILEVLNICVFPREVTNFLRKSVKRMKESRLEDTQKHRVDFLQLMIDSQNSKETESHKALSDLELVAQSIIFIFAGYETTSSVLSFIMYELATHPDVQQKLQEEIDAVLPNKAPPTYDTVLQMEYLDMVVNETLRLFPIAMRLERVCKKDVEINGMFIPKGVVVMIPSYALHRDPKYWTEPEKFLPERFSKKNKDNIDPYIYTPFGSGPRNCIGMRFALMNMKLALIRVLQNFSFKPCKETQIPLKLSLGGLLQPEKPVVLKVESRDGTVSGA
# [5] = molecular target: Delta-type opioid receptor (Homo sapiens, UniProt P41143); assay: Counterscreen for agonists of heterodimerization of the mu 1 (OPRM1) and delta 1 (OPRD1) opioid receptors: Luminescence-based cell-based high throughput dose response assay to identify agonists of OPRD1 homodimerization. [Related pubchem assays (depositor defined):AID504326, AID504355, AID504692, AID504904, AID504905]; assay type: functional
# Sequence of Delta-type opioid receptor (P41143 whole entry): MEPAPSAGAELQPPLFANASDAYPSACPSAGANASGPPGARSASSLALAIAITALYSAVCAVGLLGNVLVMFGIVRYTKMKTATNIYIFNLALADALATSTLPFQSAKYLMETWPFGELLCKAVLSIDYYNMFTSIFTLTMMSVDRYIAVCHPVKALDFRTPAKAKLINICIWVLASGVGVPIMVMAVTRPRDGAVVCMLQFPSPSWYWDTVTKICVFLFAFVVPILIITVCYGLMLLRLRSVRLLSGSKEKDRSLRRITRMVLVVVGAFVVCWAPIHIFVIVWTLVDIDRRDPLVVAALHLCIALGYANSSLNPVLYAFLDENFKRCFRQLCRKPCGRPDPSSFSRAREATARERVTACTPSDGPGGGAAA
# [6] = molecular target: 5-hydroxytryptamine receptor 5A (Homo sapiens, UniProt P47898); assay: Counterscreen for agonists of OPRM1-OPRD1 heterodimerization: luminescence-based cell-based high throughput dose response assay to identify agonists of 5-hydroxytryptamine (serotonin) 5A receptor (HTR5A). [Related pubchem assays (depositor defined):AID504326, AID504355, AID504692, AID504904, AID504905]; assay type: functional
# Sequence of 5-hydroxytryptamine receptor 5A (P47898 whole entry): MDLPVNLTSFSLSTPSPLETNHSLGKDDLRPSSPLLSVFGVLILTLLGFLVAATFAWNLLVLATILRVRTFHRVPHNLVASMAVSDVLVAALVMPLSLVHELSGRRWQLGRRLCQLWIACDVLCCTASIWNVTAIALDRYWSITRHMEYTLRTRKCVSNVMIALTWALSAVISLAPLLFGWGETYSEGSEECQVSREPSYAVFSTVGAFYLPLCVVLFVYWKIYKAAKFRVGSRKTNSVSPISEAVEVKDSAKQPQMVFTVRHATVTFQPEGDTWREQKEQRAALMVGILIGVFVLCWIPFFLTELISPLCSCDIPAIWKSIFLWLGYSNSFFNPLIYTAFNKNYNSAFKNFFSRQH
# Mu-type opioid receptor = Mu-type opioid receptor (Homo sapiens, UniProt P35372); assay: Counterscreen for agonists of heterodimerization of the mu 1 (OPRM1) and delta 1 (OPRD1) opioid receptors: Luminescence-based cell-based high throughput dose response assay to identify agonists of OPRM1 homodimerization.; assay type: functional;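 further: U2OS cells expressing OPRM1 and beta-arrestin as split beta-galactosidase partners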
# Sequence of Mu-type opioid receptor (P35372 whole entry): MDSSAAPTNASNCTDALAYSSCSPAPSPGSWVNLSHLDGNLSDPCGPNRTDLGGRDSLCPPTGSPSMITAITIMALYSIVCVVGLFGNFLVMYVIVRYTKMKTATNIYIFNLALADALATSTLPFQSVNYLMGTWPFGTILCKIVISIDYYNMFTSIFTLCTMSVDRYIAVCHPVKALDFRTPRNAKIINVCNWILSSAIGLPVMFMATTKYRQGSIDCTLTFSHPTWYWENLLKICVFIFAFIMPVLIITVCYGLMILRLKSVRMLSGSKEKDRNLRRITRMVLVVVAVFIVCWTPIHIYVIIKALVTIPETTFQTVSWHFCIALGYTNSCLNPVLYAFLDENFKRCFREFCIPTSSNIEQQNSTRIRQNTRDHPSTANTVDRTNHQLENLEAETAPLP
# [7] = Luminescence Cell-Based Dose Response HTS to Identify Inhibitors of 5'UTR Stem-Loop Driven Prion Protein mRNA Translation in H4 Neuroglioblastoma Cells. [Related pubchem assays: 1827 (Project Summary), 1813 (Primary HTS)]; assay type: functional
# [8] = luciferase reporter signal suppression in cells – H4 neuroglioma cells, luminescence, dose response (AID 1990); assay type: functional, cell-based
# HEK293 [9] = assay: cells; details: Homo sapiens
# [10] = alpha-synuclein stem-loop luciferase translation blockers – H4 neuroglioma cells, luminescence, confirmation (AID 1988); assay type: functional, cell-based
# HEK293 [11] = assay: cells; details: Homo sapiens; remark: listed apart in the source
# HEK293 [12] = assay: cells; assay type: functional, cell-based; details: Homo sapiens
# cells = assay type: functional, cell-based; details: HEK-CNG
# HEK293 [13] = assay: inhibition of NOD1-driven NF-kB reporter – cell-based, luminescence, uHTS, primary screen (AID 1578); assay type: functional; details: Homo sapiens
# HEK293 [14] = assay: cells; assay type: functional, cell-based; details: Homo sapiens; remark: listed apart in the source
# HEK293 [15] = assay: NOD2 signaling inhibitors in MDP-stimulated cells, cell-based, uHTS, luminescence (AID 2001); assay type: functional; details: Homo sapiens
# Galanin receptor type 3 = molecular target: T5, Galanin receptor type 3 (Homo sapiens, UniProt O60755); assay: Fluorescence-based cell-based primary high throughput dose response assay to identify antagonists of the Galanin Receptor 3 (GalR3).; assay type: functional
# T5 sequence (O60755 whole entry): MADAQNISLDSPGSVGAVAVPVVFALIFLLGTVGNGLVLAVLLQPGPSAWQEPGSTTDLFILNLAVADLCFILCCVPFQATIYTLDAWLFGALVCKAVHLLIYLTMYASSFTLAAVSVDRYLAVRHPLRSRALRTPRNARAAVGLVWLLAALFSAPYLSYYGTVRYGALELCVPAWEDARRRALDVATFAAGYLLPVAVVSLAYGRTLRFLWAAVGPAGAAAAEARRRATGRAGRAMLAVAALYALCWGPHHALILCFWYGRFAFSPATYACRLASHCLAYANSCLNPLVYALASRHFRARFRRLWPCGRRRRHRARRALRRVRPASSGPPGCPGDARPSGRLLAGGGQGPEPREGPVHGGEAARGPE
# [16] = NIH-3T3 fibroblast cytotoxicity, dose response, cytotoxicity control, cell-based, fluorescence, Alamar Blue, secondary assay (AID 2327); assay type: functional;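 further: NIH-3T3 mouse fibroblasts cultured with fluconazole at 8 µg/mL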
# [17] = fluconazole-exposed Candida albicans growth modulators – fluorescence, retest, confirmation (AID 2467); assay type: functional, cell-based
smiles,measurement,setting,value
COc1ccc(NC(=O)c2sc3nc(-c4cccnc4)ccc3c2N)cc1OC,EC50,[1],54.5 µM (inactive)
same,EC50,[2],115 µM (inconclusive)
same,EC50,[3],> 99 µM (inactive)
same,EC50,[4],> 300 µM (inconclusive)
C=CCNC(=O)c1ccccc1NC(=O)Nc1ccccc1,AC50,Escherichia coli,44.4 µM (active)
CC(C)C(=O)N/N=C/c1ccc(OCc2ccccc2)cc1,AC50,Cytochrome P450 2C19,10 µM (inconclusive)
same,AC50,Cytochrome P450 2D6,inconclusive
same,AC50,Cytochrome P450 1A2,15.8 µM (inconclusive)
same,AC50,Cytochrome P450 3A4,inconclusive
COc1ccc(-c2nc(CN3CCC(C(=O)NC4CCCc5ccccc54)CC3)c(C)o2)cc1OC (stereo unspecified),EC50,[5],> 92.4 µM (inactive)
same,EC50,[6],> 92.4 µM (inactive)
same,EC50,Mu-type opioid receptor,20.8 µM (inactive)
COc1ccc(-c2nn3c(C4CCCCC4)nnc3s2)cc1OC,EC50,[7],18.1 µM (active)
same,EC50,[8],15.5 µM (active)
same,EC50,HEK293 [9],> 59.7 µM (inactive)
same,EC50,[10],13.5 µM (active)
same,EC50,HEK293 [11],> 59.7 µM (inactive)
O=C(Nc1ccc(F)c(Cl)c1)c1cccnc1,AC50,Escherichia coli,61.5 µM (active)
O=C1C=CC(O)C2(CO)OC12 (stereo unspecified),EC50,HEK293 [9],> 59.6 µM (inactive)
same,EC50,HEK293 [11],> 59.6 µM (inactive)
O=S(=O)(NC1CC1)c1ccc(S(=O)(=O)N2CCCC3(CCCCC3)C2)cc1,EC50,[5],> 92.5 µM (inactive)
same,EC50,[6],> 92.5 µM (inactive)
same,EC50,Mu-type opioid receptor,> 92.5 µM (inactive)
c1cncc(CNCc2cccnc2)c1,AC50,Cytochrome P450 2D6,inconclusive
COc1ccc(NS(=O)(=O)c2ccc(NC(=O)c3ccc(CN4CCOCC4)cc3)cc2)cc1,IC50,HEK293 [12],> 20 µM (inactive)
same,EC50,cells,> 29.9 µM (inactive)
same,EC50,HEK293 [13],4.22 µM (active)
same,IC50,HEK293 [14],5.35 µM (active)
same,IC50,HEK293 [15],7.65 µM (active)
same,IC50,Galanin receptor type 3,2.94 µM (active)
Cc1ccc(-c2nc3sc(C#N)c(N)n3c(=O)c2C#N)cc1,EC50,[16],> 160 µM (inactive)
same,EC50,[1],> 99 µM (inactive)
same,EC50,[17],1.72 µM (active)
same,EC50,[3],> 99 µM (inactive)
CC(C)OC(=O)c1nn2c(C(F)(F)F)cc(-c3ccco3)nc2c1Cl,AC50,Escherichia coli,43.9 µM (active)
O=C(Nc1ccc(Br)c2ccccc12)c1ccc2ccccc2c1O,IC50,HEK293 [12],13.7 µM (active)
same,EC50,HEK293 [13],0.79 µM (active)
same,IC50,HEK293 [14],2.6 µM (active)
same,IC50,HEK293 [15],1.91 µM (active)
CCc1ccc(NC(=O)CCn2nc(C)c(S(=O)(=O)N3CCCCC3)c2C)cc1,EC50,HEK293 [9],> 59.7 µM (inactive)
same,EC50,HEK293 [11],> 59.7 µM (inactive)
